Test results from patent publication US10928381B2, “In vitro methods of monitoring autophagy in a human cell using a photoconvertable fluorescent protein linked biomarker” (The Regents of the University of Michigan, priority 2018, dated 2021).

System: Dendra2-LC3 HEK cells
Assay: Native (green, GFP) Dendra2-LC3 intensity and puncta, phase I primary screen readout (T15/T0)
Type: cell-based, human
Conditions: for GFP intensity of native Dendra2-LC3: vs DMSO
Text: Conventional methods for estimating autophagy flux rely upon the assessment of LC3 or other autophagy substrates by Western blotting or immunocytochemistry (Ref. 27; herein incorporated by reference in its entirety); by their very nature, these techniques are static and limited to dead cells. Fluorescence-based methods that use tagged substrates allow visualization of autophagy within living cells, but typically require the overexpression of autophagy target proteins that may disrupt the very process they are intended to measure. To assess autophagy in human cells without compromising or interfering with the pathway, experiments were conducted during development of embodiments herein utilizing CRISPR/Cas9 genome editing (Refs. 29-30; herein incorporated by reference in their entireties) to insert the Dendra2 open reading frame into the MAP1LC3B locus (encoding LC3) of HEK cells (FIG. 2a). A mutated, nickase version of Cas9 (Cas9n) was used that is incapable of making double-stranded DNA breaks, thereby minimizing the risk of non-homologous end joining and unwanted insertions or deletions (Refs. 29, 35; herein incorporated by reference in their entireties). Two separate single guide RNAs (sgRNAs) were designed that recognize sequences just upstream and downstream of the MAP1LC3B start codon, and a homology directed repair (HDR) vector encoding the Dendra2 open reading frame flanked by 400 bp of homologous sequence surrounding the MAP1LC3B start codon (FIG. 2a). Following expression of the sgRNAs, Cas9n and the HDR in HEK cells, colonies were selected based upon green fluorescence and passaged to homogeneity (FIG. 2b). The insertion site was confirmed by DNA sequencing, PCR, and immunocytochemistry using antibodies that recognize LC3. Providing further validation of the insertion, transfection with siRNA directed against the MAP1LC3B locus elicited a significant reduction in Dendra2-LC3 protein levels as measured by western blotting and native GFP fluorescence (FIG. 2c, d). In untreated cells, Dendra2-LC3 fluorescence appears diffuse, as expected (FIG. 3a). […] Second, autophagy induction in these cells is accompanied not only by the formation of puncta, but also by relative decreases in diffuse Dendra2-LC3 fluorescence, as indicated by the model in FIG. 1.
For these studies the potent mTOR inhibitor torin1 (Ref. 36; herein incorporated by reference in its entirety) was selected as a positive control for autophagy induction, and the vacuolar ATPase inhibitor bafilomycin-A1 (Ref. 37; herein incorporated by reference in its entirety) as a positive control for autophagy inhibition. In each case, DMSO served as a vehicle (negative) control. Dendra2-LC3 was photoconverted immediately prior to drug application, and the fluorescence intensity in the green (GFP) and red (RFP) channels was measured at regular intervals for 15 h.
The Z′ value for the effect of torin1 on the normalized GFP intensity, calculated as a ratio of GFP intensity at 15 h to that at 0 h (T15/T0), was 0.63 when the assay was conducted in a 96-well format in our laboratory, and 0.56 when conducted in a 384-well format at the Center for Chemical Genomics (CCG, FIG. 3e), indicative of a robust screening platform (Ref. 38; herein incorporated by reference in its entirety). […] The false negative rate was near zero, ensuring a highly sensitive assay.
The possibility that cell death and toxicity mimics the reduction in GFP intensity that would otherwise denote autophagy induction was also addressed. To avoid confounding from toxicity, the area occupied by cells in each image is calculated using ImageJ software and used as a proxy for cell number; since all wells received the same number of cells, >25% reductions in the area occupied by cells at the end of the experiment indicates toxicity. The formation of Dendra2-LC3 puncta in each condition is scored simultaneously using the ‘analyze particles’ function in ImageJ. […]

| SMILES | Effect on torin1-elicited reduction in GFP intensity (co-treatment with torin1) | Formation of Dendra2-LC3 (LC3-positive) puncta (FPZ 0.5 μM, torin1 1 μM) | GFP intensity of native Dendra2-LC3 (FPZ 0.5 μM, torin1 1 μM) | GFP intensity of native Dendra2-LC3 (FPZ 0.5 μM, torin1 1 μM, listed as torin1) | GFP intensity of native Dendra2-LC3 (FPZ 0.5 μM, torin1 1 μM, listed as torin-1) | Rank among autophagy inducers in phase I (Prestwick and Enzo collections) |
| --- | --- | --- | --- | --- | --- | --- |
| CO/C1=C\C(C)=C\[C@@H](C)[C@@H](O)[C@@H](C)C/C(C)=C/C=C/[C@H](OC)[C@@H]([C@@H](C)[C@@H](O)[C@H](C)[C@@]2(O)C[C@@H](O)[C@H](C)[C@@H](C(C)C)O2)OC1=O [Bafilomycin-A1, bafilomycin-A1] | fully blocked | – | – | – | – | – |
| CCC(=O)N1CCN(c2ccc(-n3c(=O)ccc4cnc5ccc(-c6cnc7ccccc7c6)cc5c43)cc2C(F)(F)F)CC1 [Torin1, torin1] | – | elicits the formation of LC3-positive puncta | return is prevented | highly significant and durable reduction | reduces the steady-state GFP intensity | rank among the most potent inducers |
